Biological target: NR1A/NR2B NMDA receptor (Rattus norvegicus, UniProt P35439+Q00960)
Assay: Electrophysiological NR1A/NR2B assay in Xenopus oocytes (two-electrode voltage clamp)
Format: cell-based
Conditions: Table 1; oocytes expressing NR1A/NR2B, currents activated by glutamate and glycine
Source text: I. Electrophysiological assays at NMDA receptor subunits (in vitro):
(i) Preparation of subunit RNA's:
cDNA clones encoding the NR1A, NR2A, NR2B, and NR2C rat NMDA receptor subtypes were used. (See, Moriyoshi et al., Nature (Lond.), 1991;354:31-37; Kutsuwada et al., Nature (Lond.), 1992;358:36-41; Monyer et al., Science (Washington, D.C.) 1992;256:1217-1221; Ikeda et al., FEBS Lett. 1992;313: 34-38; Ishii et al., J. Biol. Chem., 1993;268:2836-2843 for details of these clones or their mouse homologs). The clones were transformed into appropriate host bacteria and plasmid preparations were made with conventional DNA purification techniques. A sample of each clone was linearized by restriction enzyme digestion […] was synthesized with T3 RNA polymerase. The cRNA was diluted to 400 ng/μl and stored in 1 μl aliquots at −80° C. until injection.
(ii) The Xenopus oocyte expression system: […]
Electrical recordings were made using a conventional two-electrode voltage clamp (Dagan TEV-200) over periods ranging between 3 to 21 days following injection. […] Inhibitory potency of the novel antagonists of this invention was assessed on responses elicited by fixed concentrations of glutamate and glycine agonists, by measuring reductions in current induced by progressively increasing concentrations of invention compounds. […]

Sequence of NR1A/NR2B NMDA receptor (Q00960 27-1482, other chains not shown): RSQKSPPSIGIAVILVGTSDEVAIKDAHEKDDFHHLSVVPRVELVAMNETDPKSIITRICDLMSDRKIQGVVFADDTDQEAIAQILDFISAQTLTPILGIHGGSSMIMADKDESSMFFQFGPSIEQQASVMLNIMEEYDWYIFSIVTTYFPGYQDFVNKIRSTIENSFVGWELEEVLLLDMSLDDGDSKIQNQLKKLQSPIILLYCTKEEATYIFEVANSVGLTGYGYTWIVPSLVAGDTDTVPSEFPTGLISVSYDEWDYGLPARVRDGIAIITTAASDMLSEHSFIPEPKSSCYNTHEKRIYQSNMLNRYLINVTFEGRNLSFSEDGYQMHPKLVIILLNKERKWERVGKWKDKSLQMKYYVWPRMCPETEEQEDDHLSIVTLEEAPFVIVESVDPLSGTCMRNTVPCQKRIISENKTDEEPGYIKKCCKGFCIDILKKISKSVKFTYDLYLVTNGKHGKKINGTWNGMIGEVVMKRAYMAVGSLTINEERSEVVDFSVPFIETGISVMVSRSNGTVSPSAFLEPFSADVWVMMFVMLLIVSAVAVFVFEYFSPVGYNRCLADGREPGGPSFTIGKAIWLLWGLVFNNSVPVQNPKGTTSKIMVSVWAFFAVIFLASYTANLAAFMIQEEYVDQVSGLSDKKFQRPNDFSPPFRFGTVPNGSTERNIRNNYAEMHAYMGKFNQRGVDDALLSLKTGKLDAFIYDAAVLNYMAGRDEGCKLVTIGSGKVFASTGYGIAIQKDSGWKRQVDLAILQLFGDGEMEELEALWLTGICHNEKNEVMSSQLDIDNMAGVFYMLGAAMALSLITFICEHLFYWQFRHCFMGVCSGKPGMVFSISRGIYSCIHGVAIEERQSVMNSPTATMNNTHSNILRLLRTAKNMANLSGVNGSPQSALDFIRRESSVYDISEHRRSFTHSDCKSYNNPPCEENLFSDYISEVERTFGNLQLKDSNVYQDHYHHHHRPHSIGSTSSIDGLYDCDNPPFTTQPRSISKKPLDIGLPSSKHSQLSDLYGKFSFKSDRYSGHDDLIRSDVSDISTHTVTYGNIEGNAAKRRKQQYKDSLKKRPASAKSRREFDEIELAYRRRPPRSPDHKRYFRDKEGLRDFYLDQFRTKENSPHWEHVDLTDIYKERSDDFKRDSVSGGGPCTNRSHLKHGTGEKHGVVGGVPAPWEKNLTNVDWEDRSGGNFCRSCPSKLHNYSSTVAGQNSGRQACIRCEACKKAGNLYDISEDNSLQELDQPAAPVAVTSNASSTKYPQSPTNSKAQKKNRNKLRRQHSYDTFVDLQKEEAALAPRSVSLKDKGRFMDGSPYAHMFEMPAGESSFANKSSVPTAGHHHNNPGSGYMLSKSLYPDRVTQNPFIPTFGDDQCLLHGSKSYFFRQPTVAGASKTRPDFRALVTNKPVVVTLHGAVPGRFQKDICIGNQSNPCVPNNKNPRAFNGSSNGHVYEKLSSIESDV

`O=c1[nH]c2ccc(C3=NOC(CN4CCC(Cc5ccccc5)CC4)C3)cc2o1` (racemic) [Example 1, 6-[5-(4-Benzylpiperidin-1-ylmethyl)-4,5-dihydroisoxazol-3-yl]-3H-benzoxazol-2-one] showed an IC50 of 0.08 µM.

Reference: patent US6642256B2, “Piperidine derivatives as subtype selective N-Methyl-D-Aspartate antagonists” (Warner-Lambert Company LLC, priority 2000, dated 2003)
